Assay results reported in US20220089592A1, “IMIDAZO[1,2-A]PYRIDINYL DERIVATIVES AS IRAK4 INHIBITORS” (priority 2019, published 2022).
Structures can show the parent of a compound that is named as a salt.

Target: T1, IRAK4 (Homo sapiens, UniProt Q9NWZ3)
T1 sequence (Q9NWZ3 1-460): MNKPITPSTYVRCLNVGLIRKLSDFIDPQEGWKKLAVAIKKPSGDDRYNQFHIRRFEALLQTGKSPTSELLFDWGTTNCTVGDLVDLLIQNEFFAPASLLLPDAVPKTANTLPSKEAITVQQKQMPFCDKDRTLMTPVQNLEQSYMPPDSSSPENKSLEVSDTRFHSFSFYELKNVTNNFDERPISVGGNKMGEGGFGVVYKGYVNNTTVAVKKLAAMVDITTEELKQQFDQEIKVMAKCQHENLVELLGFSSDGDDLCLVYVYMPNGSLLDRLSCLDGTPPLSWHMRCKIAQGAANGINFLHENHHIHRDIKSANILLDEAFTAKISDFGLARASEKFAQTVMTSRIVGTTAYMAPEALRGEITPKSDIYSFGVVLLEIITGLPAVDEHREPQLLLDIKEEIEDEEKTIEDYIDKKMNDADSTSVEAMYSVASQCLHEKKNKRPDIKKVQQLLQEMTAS
Experiment: 2-hour 1 mM ATP IRAK4 Biochemical assay (as above, but with 100 pM IRAK4 and 1 mM ATP)
Conditions: IRAK4 MSD BIOCHEMICAL (1 mM ATP) IC50 (μM), 100 pM IRAK4, 2 hours
Protocol: The 2-hour 10 μM ATP Biochemical Assay employs a MesoScale Detection (MSD) format.
The activity is quenched with 11 μl of 70 mM EDTA, pH 8.
To detect the phosphorylated biotinylated peptide substrate, 30 μl of the quenched reaction mixture is added to equivalent wells of a 384 well streptavidin coated MesoScale plate (Meso Scale Discovery #L21SA-1). After a 1 hour incubation of the plate for 1 hour at room temperature with gentle mixing, the plate wells are washed 3 times with 50 mM Tris, pH 7.5, 150 mM NaCl, 0.02% Tween-20.
A 25 μl volume of 1:500 anti-P-Threonine Rabbit polyclonal Antibody plus 1:500 Goat-anti-Rabbit Sulfo Tag Antibody (Meso Scale Discovery R32AB-1) in 50 mM Tris, pH 7.5, 150 mM NaCl, 0.02% Tween-20 plus 2% BSA is then added to each well. After a 1-hour incubation of the plate for 1 hour at room temperature with gentle mixing, the plate wells are washed, 3 times with 50 mM Tris, pH 7.5, 150 mM NaCl, 0.02% Tween-20. A 40 μl volume of 2×MSD Read Buffer (Meso Scale Discovery R92TC-1) is added to each well, and the plate is read immediately in an MSD Plate Reader (Meso Scale Discovery).
The 2-hour 1 mM ATP IRAK4 Biochemical assay was performed as described above, but with 100 pM IRAK4 and 1 mM ATP.

Compound	IC50 [µM]
CCOc1cc(NC(=O)c2cccc(C(F)F)n2)cn2cc([C@@H]3C4COC[C@H]43)nc12 (relative stereo) [Example 306, N-(2-((1R*,5S*,6s*)-3-oxabicyclo[3.1.0]hexan-6-yl)-8-ethoxyimidazo[1,2-a]pyridin-6-yl)-6-(difluoromethyl)picolinamide]	0.007
CCOc1cc2nc([C@@H]3C[C@@H]3F)cn2cc1NC(=O)c1cccc(C(F)F)n1 (relative stereo) [Example 519, Cis 6-(difluoromethyl)-N-(7-ethoxy-2-(2-fluorocyclopropyl)imidazo[1,2-a]pyridin-6-yl)picolinamide hydrochloride]	0.008
COc1nc(NC(=O)c2cccc(C(F)F)n2)cn2cc([C@@]34CC[C@@](C)(C3)OC4)nc12 (single isomer, unassigned) [Example 276, 6-(Difluoromethyl)-N-(8-methoxy-2-((1S*,4R*)-1-methyl-2-oxabicyclo[2.2.1]heptan-4-yl)imidazo[1,2-a]pyrazin-6-yl)picolinamide]	0.005
COc1nc(NC(=O)c2cccc(C(F)F)n2)cn2cc([C@@]34CC[C@@](C)(C3)OC4)nc12 (single isomer, unassigned) [Example 277, 6-(Difluoromethyl)-N-(8-methoxy-2-((1R*,4S*)-1-methyl-2-oxabicyclo[2.2.1]heptan-4-yl)imidazo[1,2-a]pyrazin-6-yl)picolinamide]	0.007
CCOc1cc(NC(=O)c2cccc(C(F)F)n2)cn2cc(C3CCCOC3)nc12 (single isomer, unassigned) [Example 285, 6-(difluoromethyl)-N-(8-ethoxy-2-(tetrahydro-2H-pyran-3-yl)imidazo[1,2-a]pyridin-6-yl)picolinamide]	0.006
CCOc1cc(NC(=O)c2cccc(C(F)F)n2)cn2cc(C3CCCOC3)nc12 (single isomer, unassigned) [Example 286, 6-(difluoromethyl)-N-(8-ethoxy-2-(tetrahydro-2H-pyran-3-yl)imidazo[1,2-a]pyridin-6-yl)picolinamide]	0.005
CCOc1cc(NC(=O)c2cccc(C(F)(F)F)n2)cn2cc(C3CCCOC3)nc12 (single isomer, unassigned) [Example 287, N-(8-ethoxy-2-(tetrahydro-2H-pyran-3-yl)imidazo[1,2-a]pyridin-6-yl)-6-(trifluoromethyl)picolinamide]	0.006
CCOc1cc(NC(=O)c2cccc(C(F)(F)F)n2)cn2cc(C3CCCOC3)nc12 (single isomer, unassigned) [Example 288, N-(8-ethoxy-2-(tetrahydro-2H-pyran-3-yl)imidazo[1,2-a]pyridin-6-yl)-6-(trifluoromethyl)picolinamide]	0.008

Now those with a lower IC50, led by results:

IC50 [µM]	Compound
0.004	COc1cc(NC(=O)c2cccc(C(F)F)n2)cn2cc(C3CCCOC3)nc12 (single isomer, unassigned) [Example 269, 6-(difluoromethyl)-N-(8-methoxy-2-(tetrahydro-2H-pyran-3-yl)imidazo[1,2-a]pyridin-6-yl)picolinamide]
0.003	COc1cc(NC(=O)c2cccc(C(F)F)n2)cn2cc(C3CCCOC3)nc12 (single isomer, unassigned) [Example 270, 6-(difluoromethyl)-N-(8-methoxy-2-(tetrahydro-2H-pyran-3-yl)imidazo[1,2-a]pyridin-6-yl)picolinamide]
0.002	COc1cc(NC(=O)c2cccc(C(F)F)n2)cn2cc(C3CCCOC3)nc12 (racemic) [Example 268, 6-(difluoromethyl)-N-(8-methoxy-2-(tetrahydro-2H-pyran-3-yl)imidazo[1,2-a]pyridin-6-yl)picolinamide]
0.001	COc1ncccc1C(=O)Nc1cn2cc(C34COC(C)(C3)C4)nc2cc1OC(C)C(F)(F)F (racemic) [Example 317, 2-methoxy-N-(2-(1-methyl-2-oxabicyclo[2.1.1]hexan-4-yl)-7-((1,1,1-trifluoropropan-2-yl)oxy)imidazo[1,2-a]pyridin-6-yl)nicotinamide]
